PMC5761851, “Application of a phenotypic drug discovery strategy to identify biological and chemical starting points for inhibition of TSLP production in lung epithelial cells” (PLoS ONE, 2018)

Assays:
Experiment in all cases: kinase selectivity panel
Format in all cases: biochemical
[1] = target: T1, Axl (Homo sapiens, UniProt P30530); conditions: read-out: percentage of control activity (POC), Axl
T1 construct: purchased Eurofins Pharma Discovery Services (KinaseProfiler; Cerep BioPrint panel)
T1 sequence (P30530 26-894): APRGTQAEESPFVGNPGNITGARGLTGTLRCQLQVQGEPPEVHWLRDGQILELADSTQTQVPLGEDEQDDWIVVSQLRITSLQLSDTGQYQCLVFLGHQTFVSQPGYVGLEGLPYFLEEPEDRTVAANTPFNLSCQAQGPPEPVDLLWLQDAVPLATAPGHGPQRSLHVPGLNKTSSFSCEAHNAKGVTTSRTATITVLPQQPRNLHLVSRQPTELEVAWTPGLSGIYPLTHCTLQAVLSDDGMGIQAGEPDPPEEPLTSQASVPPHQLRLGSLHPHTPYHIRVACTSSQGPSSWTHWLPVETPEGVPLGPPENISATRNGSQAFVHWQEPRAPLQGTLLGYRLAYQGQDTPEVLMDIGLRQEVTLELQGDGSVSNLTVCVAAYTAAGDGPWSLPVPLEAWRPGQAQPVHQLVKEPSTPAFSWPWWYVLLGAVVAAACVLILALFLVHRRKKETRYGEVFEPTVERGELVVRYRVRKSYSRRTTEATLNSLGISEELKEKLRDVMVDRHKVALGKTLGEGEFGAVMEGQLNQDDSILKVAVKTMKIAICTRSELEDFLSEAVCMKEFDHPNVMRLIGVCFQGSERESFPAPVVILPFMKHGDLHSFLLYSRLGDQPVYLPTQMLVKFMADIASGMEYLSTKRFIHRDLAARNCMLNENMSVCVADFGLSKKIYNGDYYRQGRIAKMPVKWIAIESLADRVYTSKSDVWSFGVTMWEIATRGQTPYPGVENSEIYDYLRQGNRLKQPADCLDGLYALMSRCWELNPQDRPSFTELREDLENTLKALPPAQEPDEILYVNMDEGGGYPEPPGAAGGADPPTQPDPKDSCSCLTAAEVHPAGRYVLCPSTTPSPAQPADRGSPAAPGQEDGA
Summary of the method: (§1)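 Tested at 10 μM in duplicate within a panel of 125 representative kinases. For selected activities, IC50 values were then determined from 9 concentrations, each run in duplicate.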

[2] = target: T2, DRAK1 (Homo sapiens, UniProt Q9UEE5); conditions: read-out: percentage of control activity (POC), DRAK1
T2 construct: purchased Eurofins Pharma Discovery Services (KinaseProfiler; Cerep BioPrint panel)
T2 sequence (Q9UEE5 1-414): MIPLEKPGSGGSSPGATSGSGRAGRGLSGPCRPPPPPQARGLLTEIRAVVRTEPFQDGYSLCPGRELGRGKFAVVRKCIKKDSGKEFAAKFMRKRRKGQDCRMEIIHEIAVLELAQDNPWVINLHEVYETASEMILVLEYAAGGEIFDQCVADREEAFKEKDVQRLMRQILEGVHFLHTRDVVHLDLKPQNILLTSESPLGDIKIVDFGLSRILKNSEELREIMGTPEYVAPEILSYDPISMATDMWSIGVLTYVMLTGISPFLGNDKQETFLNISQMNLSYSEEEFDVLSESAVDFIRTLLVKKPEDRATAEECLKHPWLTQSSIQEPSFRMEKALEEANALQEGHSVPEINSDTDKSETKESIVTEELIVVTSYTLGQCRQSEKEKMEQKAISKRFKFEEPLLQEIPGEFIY
Summary of the method: as §1

[3] = target: T3, JNK2α2 (Homo sapiens, UniProt P45984); conditions: read-out: percentage of control activity (POC), JNK2α2
T3 construct: purchased Eurofins Pharma Discovery Services (KinaseProfiler; Cerep BioPrint panel)
Summary of the method: as §1

[4] = target: T4, Lck (Homo sapiens, UniProt P06239); conditions: for remaining activity at 10 µM: read-out: percentage of control activity (POC), Lck
T4 construct: Eurofins Pharma Discovery Services (contract assay service)
Summary of the method: as §1

[5] = target: T5, MAPK2 (Homo sapiens, UniProt P28482); conditions: read-out: percentage of control activity (POC), MAPK2
T5 construct: purchased Eurofins Pharma Discovery Services (KinaseProfiler; Cerep BioPrint panel)
Summary of the method: as §1

[6] = target: T6, Mnk2 (Homo sapiens, UniProt Q9HBH9); conditions: read-out: percentage of control activity (POC), Mnk2
T6 construct: purchased Eurofins Pharma Discovery Services (KinaseProfiler; Cerep BioPrint panel)
Summary of the method: as §1

[7] = target: T7, Pim-1 (Homo sapiens, UniProt P11309); conditions: read-out: percentage of control activity (POC), Pim-1
T7 construct: purchased Eurofins Pharma Discovery Services (KinaseProfiler; Cerep BioPrint panel)
Summary of the method: as §1

[8] = target: T8, Pyk2 (Homo sapiens, UniProt Q14289); conditions: read-out: percentage of control activity (POC), Pyk2
T8 construct: purchased Eurofins Pharma Discovery Services (KinaseProfiler; Cerep BioPrint panel)
Summary of the method: as §1

[9] = target: T9, SAPK2a (Homo sapiens, UniProt Q16539); conditions: for inhibition at 10 µM: read-out: inhibition of p38α(SAPK2α); for remaining activity at 10 µM: read-out: percentage of control activity (POC), SAPK2a
T9 construct: purchased Eurofins Pharma Discovery Services (KinaseProfiler; Cerep BioPrint panel)
Summary of the method: as §1

[10] = target: T10, TBK1 (Homo sapiens, UniProt Q9UHD2); conditions: read-out: percentage of control activity (POC), TBK1
T10 construct: purchased Eurofins Pharma Discovery Services (KinaseProfiler; Cerep BioPrint panel)
T10 sequence (Q9UHD2 1-729): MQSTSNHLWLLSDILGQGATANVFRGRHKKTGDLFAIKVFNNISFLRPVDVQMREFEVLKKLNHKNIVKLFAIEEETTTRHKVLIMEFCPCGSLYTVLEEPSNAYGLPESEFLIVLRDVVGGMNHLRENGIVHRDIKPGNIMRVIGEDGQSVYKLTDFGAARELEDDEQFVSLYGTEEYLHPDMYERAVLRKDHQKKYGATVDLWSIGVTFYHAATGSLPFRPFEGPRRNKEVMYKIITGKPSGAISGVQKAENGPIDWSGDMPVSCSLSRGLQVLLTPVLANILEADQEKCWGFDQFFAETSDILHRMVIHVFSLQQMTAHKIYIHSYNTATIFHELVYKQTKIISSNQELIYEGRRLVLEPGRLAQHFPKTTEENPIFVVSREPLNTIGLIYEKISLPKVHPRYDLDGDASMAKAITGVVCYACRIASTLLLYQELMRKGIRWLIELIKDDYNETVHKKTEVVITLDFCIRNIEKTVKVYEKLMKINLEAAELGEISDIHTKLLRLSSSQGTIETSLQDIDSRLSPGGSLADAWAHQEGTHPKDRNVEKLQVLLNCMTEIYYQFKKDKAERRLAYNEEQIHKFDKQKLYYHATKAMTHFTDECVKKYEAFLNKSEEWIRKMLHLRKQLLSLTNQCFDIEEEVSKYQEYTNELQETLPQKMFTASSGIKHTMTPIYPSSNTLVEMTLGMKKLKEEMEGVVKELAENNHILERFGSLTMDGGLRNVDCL
Summary of the method: as §1

[11] = target: T11, cSRC (Homo sapiens, UniProt P12931); conditions: read-out: percentage of control activity (POC), cSRC
T11 construct: purchased Eurofins Pharma Discovery Services (KinaseProfiler; Cerep BioPrint panel)
Summary of the method: as §1

T8 sequence (Q14289 whole entry): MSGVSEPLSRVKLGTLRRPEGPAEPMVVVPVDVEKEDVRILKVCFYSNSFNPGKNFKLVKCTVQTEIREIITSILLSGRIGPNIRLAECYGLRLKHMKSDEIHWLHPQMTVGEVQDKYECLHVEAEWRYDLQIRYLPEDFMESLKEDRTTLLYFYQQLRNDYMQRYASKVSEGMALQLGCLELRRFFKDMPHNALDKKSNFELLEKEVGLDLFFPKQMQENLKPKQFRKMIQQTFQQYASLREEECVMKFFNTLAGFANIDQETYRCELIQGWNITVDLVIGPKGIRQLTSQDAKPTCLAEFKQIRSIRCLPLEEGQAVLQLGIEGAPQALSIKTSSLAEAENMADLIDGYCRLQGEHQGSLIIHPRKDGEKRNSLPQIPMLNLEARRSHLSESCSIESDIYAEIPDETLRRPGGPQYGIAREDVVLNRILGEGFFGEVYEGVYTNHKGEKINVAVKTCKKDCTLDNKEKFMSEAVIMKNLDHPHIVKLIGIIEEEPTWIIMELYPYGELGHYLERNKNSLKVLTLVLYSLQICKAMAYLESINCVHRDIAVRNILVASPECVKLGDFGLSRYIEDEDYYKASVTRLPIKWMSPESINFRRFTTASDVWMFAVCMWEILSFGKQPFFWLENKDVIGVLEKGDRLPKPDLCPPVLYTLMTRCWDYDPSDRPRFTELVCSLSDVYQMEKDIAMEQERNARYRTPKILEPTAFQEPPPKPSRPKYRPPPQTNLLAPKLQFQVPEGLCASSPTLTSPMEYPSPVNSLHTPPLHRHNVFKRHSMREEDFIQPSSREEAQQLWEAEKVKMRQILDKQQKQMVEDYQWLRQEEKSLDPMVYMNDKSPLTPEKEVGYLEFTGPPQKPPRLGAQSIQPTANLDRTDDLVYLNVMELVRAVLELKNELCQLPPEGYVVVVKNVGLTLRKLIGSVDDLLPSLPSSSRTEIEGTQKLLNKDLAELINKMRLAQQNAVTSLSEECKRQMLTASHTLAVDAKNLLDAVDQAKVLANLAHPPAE
T5 sequence (P28482 whole entry): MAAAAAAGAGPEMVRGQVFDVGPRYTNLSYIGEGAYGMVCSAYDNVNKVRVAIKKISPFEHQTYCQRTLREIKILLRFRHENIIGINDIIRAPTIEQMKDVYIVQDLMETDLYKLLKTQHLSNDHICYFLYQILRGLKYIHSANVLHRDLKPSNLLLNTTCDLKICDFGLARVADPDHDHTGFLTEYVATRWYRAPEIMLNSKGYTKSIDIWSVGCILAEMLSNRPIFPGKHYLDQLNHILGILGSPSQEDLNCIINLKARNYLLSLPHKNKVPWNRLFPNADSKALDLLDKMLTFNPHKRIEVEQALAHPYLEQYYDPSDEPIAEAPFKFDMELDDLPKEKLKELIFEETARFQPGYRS
T3 sequence (P45984 whole entry): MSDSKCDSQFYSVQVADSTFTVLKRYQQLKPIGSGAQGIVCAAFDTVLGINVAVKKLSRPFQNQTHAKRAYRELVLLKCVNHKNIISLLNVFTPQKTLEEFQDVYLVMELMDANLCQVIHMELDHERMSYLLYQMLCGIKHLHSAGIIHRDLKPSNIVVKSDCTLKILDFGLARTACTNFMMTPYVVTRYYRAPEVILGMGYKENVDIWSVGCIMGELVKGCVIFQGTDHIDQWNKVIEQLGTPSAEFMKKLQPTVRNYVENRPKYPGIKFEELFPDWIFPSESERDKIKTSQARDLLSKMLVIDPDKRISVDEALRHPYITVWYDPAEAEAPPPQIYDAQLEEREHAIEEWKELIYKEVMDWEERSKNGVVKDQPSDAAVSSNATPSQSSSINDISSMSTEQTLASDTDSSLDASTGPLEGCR
T4 sequence (P06239 whole entry, species assumed): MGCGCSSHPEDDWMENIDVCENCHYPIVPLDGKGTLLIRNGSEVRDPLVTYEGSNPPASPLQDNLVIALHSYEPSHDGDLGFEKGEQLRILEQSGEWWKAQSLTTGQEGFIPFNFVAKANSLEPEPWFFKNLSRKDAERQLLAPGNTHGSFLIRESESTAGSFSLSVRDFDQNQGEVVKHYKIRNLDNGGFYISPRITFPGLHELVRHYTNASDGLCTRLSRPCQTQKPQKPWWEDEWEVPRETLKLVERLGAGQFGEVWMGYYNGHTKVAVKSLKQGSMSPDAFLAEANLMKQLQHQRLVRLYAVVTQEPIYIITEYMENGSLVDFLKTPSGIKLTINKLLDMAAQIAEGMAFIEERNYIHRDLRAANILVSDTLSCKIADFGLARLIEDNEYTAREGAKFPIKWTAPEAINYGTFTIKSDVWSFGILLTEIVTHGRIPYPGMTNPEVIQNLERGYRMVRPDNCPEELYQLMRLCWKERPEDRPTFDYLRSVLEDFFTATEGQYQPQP
T9 sequence (Q16539 whole entry): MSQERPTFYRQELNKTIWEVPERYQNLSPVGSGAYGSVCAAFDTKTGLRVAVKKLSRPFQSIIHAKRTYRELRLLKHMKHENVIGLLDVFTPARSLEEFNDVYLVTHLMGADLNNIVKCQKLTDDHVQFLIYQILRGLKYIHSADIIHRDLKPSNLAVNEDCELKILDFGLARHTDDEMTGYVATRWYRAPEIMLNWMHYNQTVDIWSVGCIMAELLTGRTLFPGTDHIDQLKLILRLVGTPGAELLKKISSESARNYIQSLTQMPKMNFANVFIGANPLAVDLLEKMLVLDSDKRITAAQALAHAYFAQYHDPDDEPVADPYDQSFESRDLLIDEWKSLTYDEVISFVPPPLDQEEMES
T11 sequence (P12931 whole entry): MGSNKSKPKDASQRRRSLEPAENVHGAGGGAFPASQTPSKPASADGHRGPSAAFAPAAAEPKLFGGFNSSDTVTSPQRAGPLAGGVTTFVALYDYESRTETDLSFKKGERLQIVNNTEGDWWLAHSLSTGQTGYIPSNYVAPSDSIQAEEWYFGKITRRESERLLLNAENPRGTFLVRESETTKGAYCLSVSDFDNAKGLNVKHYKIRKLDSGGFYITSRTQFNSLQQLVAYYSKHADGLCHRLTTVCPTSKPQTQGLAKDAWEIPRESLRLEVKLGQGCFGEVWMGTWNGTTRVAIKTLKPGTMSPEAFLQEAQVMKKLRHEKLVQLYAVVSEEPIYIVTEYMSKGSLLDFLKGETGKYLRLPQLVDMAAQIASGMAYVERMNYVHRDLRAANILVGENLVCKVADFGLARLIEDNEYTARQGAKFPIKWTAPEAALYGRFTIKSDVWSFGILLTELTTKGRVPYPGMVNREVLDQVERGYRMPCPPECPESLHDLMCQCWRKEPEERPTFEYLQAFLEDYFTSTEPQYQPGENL
T6 sequence (Q9HBH9 whole entry): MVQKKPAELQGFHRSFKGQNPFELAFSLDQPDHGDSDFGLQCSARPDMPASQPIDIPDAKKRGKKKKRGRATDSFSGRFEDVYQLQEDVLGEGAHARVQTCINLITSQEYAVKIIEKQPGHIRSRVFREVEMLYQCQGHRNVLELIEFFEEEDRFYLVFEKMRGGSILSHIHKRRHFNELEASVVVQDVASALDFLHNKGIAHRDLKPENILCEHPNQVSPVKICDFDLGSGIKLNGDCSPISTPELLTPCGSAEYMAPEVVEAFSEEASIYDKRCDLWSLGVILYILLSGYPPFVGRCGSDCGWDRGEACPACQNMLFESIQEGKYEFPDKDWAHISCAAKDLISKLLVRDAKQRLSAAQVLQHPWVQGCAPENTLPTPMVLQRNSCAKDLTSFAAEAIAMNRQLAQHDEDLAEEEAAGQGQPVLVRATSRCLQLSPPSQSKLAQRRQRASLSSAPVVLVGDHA
T7 sequence (P11309 whole entry): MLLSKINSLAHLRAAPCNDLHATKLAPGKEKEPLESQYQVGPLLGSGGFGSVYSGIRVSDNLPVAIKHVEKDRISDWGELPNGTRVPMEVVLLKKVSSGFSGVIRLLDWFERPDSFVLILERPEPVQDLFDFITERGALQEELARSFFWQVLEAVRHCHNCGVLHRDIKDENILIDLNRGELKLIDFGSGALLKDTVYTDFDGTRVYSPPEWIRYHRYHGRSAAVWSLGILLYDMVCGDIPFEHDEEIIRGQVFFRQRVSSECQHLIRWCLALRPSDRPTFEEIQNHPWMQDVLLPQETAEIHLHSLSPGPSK

| SMILES | remaining activity at 10 µM [1] [%] | remaining activity at 10 µM [2] [%] | remaining activity at 10 µM [3] [%] | remaining activity at 10 µM ([4]; 10 μM) [%] | remaining activity at 10 µM [5] [%] | remaining activity at 10 µM [6] [%] | remaining activity at 10 µM [7] [%] | remaining activity at 10 µM [8] [%] | inhibition at 10 µM [9] [%] | remaining activity at 10 µM [9] [%] | remaining activity at 10 µM [10] [%] | remaining activity at 10 µM [11] [%] | inhibition at 10 µM ([4]; 10 μM) [%] | IC50 ([4]; biochemical dose response, duplicate, read-out: Inhibition of indicated activity (IC50, μM): Lck) [µM] |
| --- | --- | --- | --- | --- | --- | --- | --- | --- | --- | --- | --- | --- | --- | --- |
| CC(C)(C)N1CCC(c2cc(-c3ccc(F)cc3Cl)c3cc[n+]([O-])c(-c4c(Cl)cccc4Cl)c3n2)CC1 [compound 2] | 98 | 99 | 101 | 98 | 105 | 100 | 86 | 99 | ~100 | -1 | 108 | 107 |  |  |
| Cc1ccc(C(=O)NCC2CC2)cc1-c1ccc2c(c1)NC(=O)C21CCCC1 [compound 3] | 88 | 98 | 94 | 102 | 97 | 91 | 79 | 99 | ~100 | -2 | 92 | 103 |  |  |
| Cn1cc(-c2cccc(-c3nc(C(=O)NC4C5CC6CC4CC(O)(C6)C5)c(N)nc3N)c2)cn1 (stereo not drawn) [compound 4] | 59 | 89 | 98 | 44 | 97 | 86 | 68 | 86 |  | 91 | 90 | 69 | 56 | 3.33 |
| CS(=O)(=O)N1CCN(c2ccc(Nc3ncc(C(N)=O)c(NC4CC4)n3)cc2)CC1 [compound 5] | 12 | 1 | 8 | 4 | 49 | 84 | 81 | 4 |  | 89 | -1 | 16 |  |  |
| COc1c(NC(=O)c2ccc(C)c(-c3nnc4c(NCC(C)(C)C)nccn34)c2)cc(C(C)(C)C)cc1NS(C)(=O)=O [compound 7, reference compound] | 91 | 144 | 91 | 81 | 99 | 98 | 96 | 87 | ~100 | -1 | 103 | 103 |  |  |
